Measured values from ChEMBL document CHEMBL5058641, “Data for DCP probe TP-050” (2022).

Legend:
Histamine H2 receptor = Histamine H2 receptor (Homo sapiens, UniProt P25021); assay: HRH2 Eurofins SafetyScan (Receptor)
[1] = target: Glutamate receptor ionotropic, NMDA 2C (Homo sapiens, UniProt Q05586+Q14957); assay: GluN2C-containing NMDA receptor (Ca2+ influx) assay (EC50)
[2] = target: Beta-3 adrenergic receptor (Homo sapiens) (UniProt P13945); conditions: Compound concentration 10.0 uM
[3] = target: 3',5'-cyclic-AMP phosphodiesterase 4D (Homo sapiens, UniProt Q08499); assay: PDE4D2 Eurofins SafetyScreen (Other); set-up: species or system Inhibitor
[4] = target: Sodium-dependent noradrenaline transporter (Homo sapiens, UniProt P23975); assay: NET Eurofins SafetyScreen (Other); set-up: species or system Blocker
[5] = target: Muscarinic acetylcholine receptor M3 (Homo sapiens, UniProt P20309); assay: CHRM3 Eurofins SafetyScan (Receptor)
[6] = target: D(1B) dopamine receptor (Homo sapiens) (UniProt P21918); conditions: Compound concentration 10.0 uM
[7] = target: T1, Sodium-dependent dopamine transporter (Homo sapiens, UniProt Q01959); assay: GPCRScan assay: inhibition of DAT; set-up: radioligand conc. used [nm] 3.6 – 16.0, parental cells stable HEK
T1 sequence (Q01959 whole entry): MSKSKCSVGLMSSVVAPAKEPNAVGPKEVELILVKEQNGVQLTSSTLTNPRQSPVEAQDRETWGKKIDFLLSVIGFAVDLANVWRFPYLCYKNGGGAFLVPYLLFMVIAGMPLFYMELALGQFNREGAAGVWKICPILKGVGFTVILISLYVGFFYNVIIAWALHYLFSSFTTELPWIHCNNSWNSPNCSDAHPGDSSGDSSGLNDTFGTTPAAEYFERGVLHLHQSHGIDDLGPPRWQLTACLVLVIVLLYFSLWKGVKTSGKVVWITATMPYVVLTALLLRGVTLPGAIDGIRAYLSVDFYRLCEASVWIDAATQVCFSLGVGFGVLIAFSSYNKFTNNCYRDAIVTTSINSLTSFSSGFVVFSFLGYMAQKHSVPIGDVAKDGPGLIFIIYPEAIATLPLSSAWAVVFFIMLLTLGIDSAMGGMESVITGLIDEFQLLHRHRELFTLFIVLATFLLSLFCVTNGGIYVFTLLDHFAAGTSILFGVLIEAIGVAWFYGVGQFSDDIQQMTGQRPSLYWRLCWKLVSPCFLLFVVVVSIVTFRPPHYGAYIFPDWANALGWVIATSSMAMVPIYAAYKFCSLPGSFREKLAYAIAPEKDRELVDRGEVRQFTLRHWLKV

[8] = target: 5-hydroxytryptamine receptor 3A (Homo sapiens) (UniProt P46098); conditions: Compound concentration 10.0 uM
Mu-type opioid receptor [9] = target: T2, Mu-type opioid receptor (Homo sapiens, UniProt P35372); conditions: Compound concentration 10.0 uM
T2 sequence (P35372 whole entry): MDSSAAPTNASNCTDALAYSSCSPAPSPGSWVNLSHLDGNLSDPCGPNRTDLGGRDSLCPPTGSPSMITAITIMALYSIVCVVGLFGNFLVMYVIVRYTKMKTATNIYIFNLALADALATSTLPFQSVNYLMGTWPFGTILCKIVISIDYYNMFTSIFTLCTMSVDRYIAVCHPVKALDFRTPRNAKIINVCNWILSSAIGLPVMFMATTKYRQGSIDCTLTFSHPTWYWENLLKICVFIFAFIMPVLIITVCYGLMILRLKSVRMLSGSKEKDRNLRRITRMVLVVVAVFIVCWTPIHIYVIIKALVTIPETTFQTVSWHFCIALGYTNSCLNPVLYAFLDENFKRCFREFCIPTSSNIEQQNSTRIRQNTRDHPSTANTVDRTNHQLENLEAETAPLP

Rattus norvegicus = organism: Rattus norvegicus; conditions: Compound concentration 10.0 uM
[10] = target: Glutamate receptor ionotropic, NMDA 1 (Homo sapiens, UniProt Q05586+Q13224); assay: NMDAR (1A/2B) Eurofins SafetyScreen (Other); set-up: species or system Blocker
[11] = target: T3, Kappa-type opioid receptor (Homo sapiens, UniProt P41145); assay: OPRK1 Eurofins SafetyScan (Receptor)
T3 sequence (P41145 whole entry): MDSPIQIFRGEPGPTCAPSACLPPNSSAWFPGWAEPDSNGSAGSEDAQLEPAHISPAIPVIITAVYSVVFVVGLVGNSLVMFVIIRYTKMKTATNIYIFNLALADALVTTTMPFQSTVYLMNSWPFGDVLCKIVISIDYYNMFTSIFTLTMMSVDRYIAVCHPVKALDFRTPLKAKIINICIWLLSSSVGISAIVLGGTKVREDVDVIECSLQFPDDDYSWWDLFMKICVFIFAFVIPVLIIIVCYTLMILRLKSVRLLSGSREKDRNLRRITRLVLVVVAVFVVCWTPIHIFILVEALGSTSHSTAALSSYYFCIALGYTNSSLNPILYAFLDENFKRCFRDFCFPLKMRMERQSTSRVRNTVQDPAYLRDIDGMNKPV

D(2) dopamine receptor [12] = target: T4, D(2) dopamine receptor (Homo sapiens, UniProt P14416); assay: DRD2S Eurofins SafetyScan (Receptor)
T4 sequence (P14416 whole entry): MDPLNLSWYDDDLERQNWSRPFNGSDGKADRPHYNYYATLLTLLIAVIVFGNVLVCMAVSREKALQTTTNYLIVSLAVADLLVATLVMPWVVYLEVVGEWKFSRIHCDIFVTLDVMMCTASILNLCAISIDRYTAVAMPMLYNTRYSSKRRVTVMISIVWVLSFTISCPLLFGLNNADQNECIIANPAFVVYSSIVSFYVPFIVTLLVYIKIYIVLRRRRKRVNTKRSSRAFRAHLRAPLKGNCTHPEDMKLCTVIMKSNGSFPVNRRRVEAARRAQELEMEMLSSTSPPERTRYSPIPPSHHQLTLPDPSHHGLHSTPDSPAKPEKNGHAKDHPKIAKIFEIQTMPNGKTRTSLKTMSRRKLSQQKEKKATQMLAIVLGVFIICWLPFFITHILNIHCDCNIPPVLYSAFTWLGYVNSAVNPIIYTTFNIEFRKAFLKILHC

[13] = target: Sigma intracellular receptor 2 (Homo sapiens) (UniProt Q5BJF2); conditions: Compound concentration 10.0 uM
[14] = target: cGMP-inhibited 3',5'-cyclic phosphodiesterase 3A (Homo sapiens, UniProt Q14432); assay: PDE3A Eurofins SafetyScreen (Other); set-up: species or system Inhibitor
[15] = target: Histamine H4 receptor (Homo sapiens) (UniProt Q9H3N8); conditions: Compound concentration 10.0 uM
[16] = target: 5-hydroxytryptamine receptor 5A (Homo sapiens) (UniProt P47898); conditions: Compound concentration 10.0 uM
[17] = target: Muscarinic acetylcholine receptor M2 (Homo sapiens) (UniProt P08172); conditions: Compound concentration 10.0 uM
Histamine H1 receptor [18] = target: T5, Histamine H1 receptor (Homo sapiens, UniProt P35367); conditions: Compound concentration 10.0 uM
T5 sequence (P35367 whole entry): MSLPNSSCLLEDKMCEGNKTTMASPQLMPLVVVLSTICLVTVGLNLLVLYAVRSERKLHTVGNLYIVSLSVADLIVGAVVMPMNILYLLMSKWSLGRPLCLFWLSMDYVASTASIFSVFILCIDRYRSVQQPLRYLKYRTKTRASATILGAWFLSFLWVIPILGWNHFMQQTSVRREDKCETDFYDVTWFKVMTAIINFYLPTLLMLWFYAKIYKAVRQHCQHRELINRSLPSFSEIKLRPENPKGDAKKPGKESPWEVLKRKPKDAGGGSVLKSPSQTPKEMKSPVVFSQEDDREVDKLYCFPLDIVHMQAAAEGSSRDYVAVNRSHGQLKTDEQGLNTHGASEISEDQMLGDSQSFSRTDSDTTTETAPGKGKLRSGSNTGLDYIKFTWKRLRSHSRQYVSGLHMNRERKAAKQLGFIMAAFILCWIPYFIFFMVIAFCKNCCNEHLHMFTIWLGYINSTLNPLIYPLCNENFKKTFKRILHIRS

Androgen receptor = Androgen receptor (Homo sapiens, UniProt P10275); assay: AR Eurofins SafetyScan (Receptor)
[19] = target: 5-hydroxytryptamine receptor 1B (Homo sapiens, UniProt P28222); assay: HTR1B Eurofins SafetyScan (Receptor)
Sequence of 5-hydroxytryptamine receptor 1B (P28222 whole entry): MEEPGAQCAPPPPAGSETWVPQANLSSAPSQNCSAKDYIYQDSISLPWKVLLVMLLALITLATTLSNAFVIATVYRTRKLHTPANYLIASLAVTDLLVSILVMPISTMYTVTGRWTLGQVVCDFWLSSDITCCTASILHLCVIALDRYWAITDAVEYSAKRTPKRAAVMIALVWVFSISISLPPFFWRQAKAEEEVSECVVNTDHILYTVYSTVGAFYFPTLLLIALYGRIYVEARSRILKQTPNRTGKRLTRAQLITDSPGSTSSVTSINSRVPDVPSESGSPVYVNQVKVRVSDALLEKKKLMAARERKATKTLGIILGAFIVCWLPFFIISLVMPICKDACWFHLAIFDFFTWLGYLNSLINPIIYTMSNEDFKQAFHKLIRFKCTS

[20] = target: Alpha-2C adrenergic receptor (Homo sapiens) (UniProt P18825); conditions: Compound concentration 10.0 uM
[21] = target: T6, Beta-1 adrenergic receptor (Homo sapiens, UniProt P08588); conditions: Compound concentration 10.0 uM
Target sequence in this assay (P08588 whole entry, looked up): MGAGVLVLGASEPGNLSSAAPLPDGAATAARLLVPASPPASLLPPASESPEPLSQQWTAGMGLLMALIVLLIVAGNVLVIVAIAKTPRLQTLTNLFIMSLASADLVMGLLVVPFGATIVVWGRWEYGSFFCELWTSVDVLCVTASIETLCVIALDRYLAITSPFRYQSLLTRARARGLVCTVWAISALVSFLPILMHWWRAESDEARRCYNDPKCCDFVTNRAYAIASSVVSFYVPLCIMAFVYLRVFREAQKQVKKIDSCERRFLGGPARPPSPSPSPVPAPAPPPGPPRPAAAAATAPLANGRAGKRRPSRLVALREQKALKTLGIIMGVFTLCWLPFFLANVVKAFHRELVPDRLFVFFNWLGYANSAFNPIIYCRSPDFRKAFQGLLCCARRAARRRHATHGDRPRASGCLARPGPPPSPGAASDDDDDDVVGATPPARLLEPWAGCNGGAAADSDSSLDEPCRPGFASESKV

D(1A) dopamine receptor = D(1A) dopamine receptor (Homo sapiens, UniProt P21728); assay: DRD1 Eurofins SafetyScan (Receptor)
Sequence of D(1A) dopamine receptor (P21728 whole entry): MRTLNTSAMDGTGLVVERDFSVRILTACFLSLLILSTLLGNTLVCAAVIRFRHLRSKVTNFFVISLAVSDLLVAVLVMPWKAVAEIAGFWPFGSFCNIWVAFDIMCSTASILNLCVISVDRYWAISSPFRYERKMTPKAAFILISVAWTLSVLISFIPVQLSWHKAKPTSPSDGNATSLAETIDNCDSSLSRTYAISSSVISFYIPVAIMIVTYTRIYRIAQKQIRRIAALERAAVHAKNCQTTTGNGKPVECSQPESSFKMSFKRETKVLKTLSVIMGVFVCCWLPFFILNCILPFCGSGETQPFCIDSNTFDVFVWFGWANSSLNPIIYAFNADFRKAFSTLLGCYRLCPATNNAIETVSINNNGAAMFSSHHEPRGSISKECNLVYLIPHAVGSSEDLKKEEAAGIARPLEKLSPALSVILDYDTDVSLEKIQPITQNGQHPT

[22] = target: T3, Kappa-type opioid receptor; conditions: Compound concentration 10.0 uM
[23] = target: 5-hydroxytryptamine receptor 2A (Homo sapiens, UniProt P28223); conditions: Compound concentration 10.0 uM
Histamine H1 receptor [24] = target: T5, Histamine H1 receptor; assay: HRH1 Eurofins SafetyScan (Receptor)
[25] = target: Gamma-aminobutyric acid receptor subunit alpha-1 (Homo sapiens, UniProt P14867); assay: GABAA Eurofins SafetyScreen (Other); set-up: species or system Blocker
[26] = target: D(4) dopamine receptor (Homo sapiens) (UniProt P21917); conditions: Compound concentration 10.0 uM
[27] = target: Glutamate receptor ionotropic, NMDA 2B (Homo sapiens, UniProt Q05586+Q13224); assay: GluN2B-containing NMDA receptor (Ca2+ influx) assay (EC50)
Vasopressin V1a receptor = Vasopressin V1a receptor (Homo sapiens, UniProt P37288); assay: AVPR1A Eurofins SafetyScan (Receptor)
Sequence of Vasopressin V1a receptor (P37288 whole entry): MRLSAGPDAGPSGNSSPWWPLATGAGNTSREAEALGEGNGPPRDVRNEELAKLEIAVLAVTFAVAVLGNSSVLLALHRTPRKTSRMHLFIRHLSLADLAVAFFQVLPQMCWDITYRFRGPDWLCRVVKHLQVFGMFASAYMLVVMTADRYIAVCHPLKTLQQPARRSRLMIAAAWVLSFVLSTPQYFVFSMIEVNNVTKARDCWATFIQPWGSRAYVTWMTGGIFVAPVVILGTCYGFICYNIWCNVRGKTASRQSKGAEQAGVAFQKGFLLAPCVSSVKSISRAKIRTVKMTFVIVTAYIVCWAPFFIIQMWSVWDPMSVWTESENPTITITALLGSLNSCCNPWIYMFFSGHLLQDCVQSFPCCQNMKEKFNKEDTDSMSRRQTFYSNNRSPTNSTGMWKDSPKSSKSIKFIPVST

[28] = target: Muscarinic acetylcholine receptor M5 (Homo sapiens) (UniProt P08912); conditions: Compound concentration 10.0 uM
[29] = target: Alpha-2A adrenergic receptor (Homo sapiens) (UniProt P08913); conditions: Compound concentration 10.0 uM
Sequence of Alpha-2A adrenergic receptor (Homo sapiens) (P08913 whole entry): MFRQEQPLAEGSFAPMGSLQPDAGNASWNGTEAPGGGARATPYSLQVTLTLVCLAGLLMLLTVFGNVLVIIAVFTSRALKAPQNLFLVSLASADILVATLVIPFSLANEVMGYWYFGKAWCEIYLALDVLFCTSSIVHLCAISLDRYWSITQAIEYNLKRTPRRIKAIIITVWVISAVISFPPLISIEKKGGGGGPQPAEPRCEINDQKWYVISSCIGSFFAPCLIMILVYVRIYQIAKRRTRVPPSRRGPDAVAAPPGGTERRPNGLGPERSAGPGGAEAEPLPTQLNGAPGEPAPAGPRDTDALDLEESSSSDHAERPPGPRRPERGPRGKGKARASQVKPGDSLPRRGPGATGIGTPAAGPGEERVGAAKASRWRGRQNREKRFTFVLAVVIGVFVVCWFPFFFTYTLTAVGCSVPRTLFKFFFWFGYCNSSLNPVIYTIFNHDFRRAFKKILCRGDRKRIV

Insulin receptor = Insulin receptor (Homo sapiens, UniProt P06213); assay: INSR Eurofins SafetyScreen (Other); set-up: species or system Inhibitor
Mu-type opioid receptor [30] = target: T2, Mu-type opioid receptor; assay: OPRM1 Eurofins SafetyScan (Receptor)
[31] = AMPA receptor scintillation proximity binding assay; set-up: species or system Homo sapiens
[32] = target: Potassium voltage-gated channel subfamily KQT member 1 (Homo sapiens, UniProt P51787); assay: KvLQT1/minK Eurofins SafetyScreen (Other); set-up: species or system Blocker
[33] = GPCRScan assay: inhibition of GABA/PBR; set-up: species or system Rattus norvegicus; radioligand conc. used [nm] 0.3 – 2.0, parental cells brain tissue
[34] = target: 5-hydroxytryptamine receptor 2C (Homo sapiens) (UniProt P28335); conditions: Compound concentration 10.0 uM
[35] = target: T6, Beta-1 adrenergic receptor; assay: ADRB1 Eurofins SafetyScan (Receptor)
Target sequence in this assay (P08588 whole entry): as the sequence (P08588 whole entry, looked up) above

[36] = target: 5-hydroxytryptamine receptor 6 (Homo sapiens) (UniProt P50406); conditions: Compound concentration 10.0 uM
[37] = target: Rho-associated protein kinase 1 (Homo sapiens, UniProt Q13464); assay: ROCK1 Eurofins SafetyScreen (Other); set-up: species or system Inhibitor
[38] = target: T1, Sodium-dependent dopamine transporter; conditions: Compound concentration 10.0 uM
[39] = target: Beta-2 adrenergic receptor (Homo sapiens, UniProt P07550); conditions: Compound concentration 10.0 uM
D(2) dopamine receptor [40] = target: T4, D(2) dopamine receptor; conditions: Compound concentration 10.0 uM

Sequence of Histamine H2 receptor (P25021 whole entry): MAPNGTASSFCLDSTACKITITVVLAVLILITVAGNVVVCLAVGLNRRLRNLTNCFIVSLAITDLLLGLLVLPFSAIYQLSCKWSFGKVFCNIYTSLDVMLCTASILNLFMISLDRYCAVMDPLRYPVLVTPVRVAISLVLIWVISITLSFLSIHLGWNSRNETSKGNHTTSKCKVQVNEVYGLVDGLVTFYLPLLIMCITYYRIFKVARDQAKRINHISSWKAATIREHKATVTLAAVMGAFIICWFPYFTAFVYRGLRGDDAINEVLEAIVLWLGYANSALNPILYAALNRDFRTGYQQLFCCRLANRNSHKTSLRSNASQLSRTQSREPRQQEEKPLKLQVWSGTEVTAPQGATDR

Cc1cn([C@H](C)CC#N)c(=O)c2cc(Cn3nc(C(F)F)cc3Cl)nn12
0.336 µM: Ki [33]
> 10 µM: EC50 (Histamine H2 receptor) | IC50 (Histamine H2 receptor) | IC50 [3] | IC50 [4] | EC50 [5] | IC50 [5] | IC50 [10] | EC50 [11] | IC50 [11] | EC50 (D(2) dopamine receptor [12]) | IC50 (D(2) dopamine receptor [12]) | EC50 (Androgen receptor) | IC50 (Androgen receptor) | EC50 [19] | IC50 [19] | EC50 (D(1A) dopamine receptor) | IC50 (D(1A) dopamine receptor) | EC50 (Histamine H1 receptor [24]) | IC50 (Histamine H1 receptor [24]) | IC50 [25] | EC50 (Vasopressin V1a receptor) | IC50 (Vasopressin V1a receptor) | IC50 (Insulin receptor) | EC50 (Mu-type opioid receptor [30]) | IC50 (Mu-type opioid receptor [30]) | IC50 [32] | EC50 [35] | IC50 [35] | IC50 [37]
inactive: inhibition [2] -3.8% | inhibition [6] 19.3% | inhibition [8] 0.11% | inhibition (Mu-type opioid receptor [9]) 0.85% | inhibition [13] 10.9% | inhibition [15] 25.2% | inhibition [16] 7.54% | inhibition [17] 4.32% | inhibition (Histamine H1 receptor [18]) 31.7% | inhibition [20] -1.11% | inhibition [21] 4.09% | inhibition [22] 2.27% | inhibition [23] -5.37% | inhibition [26] 48.5% | inhibition [28] 17.9% | inhibition [29] 15.9% | inhibition [34] 13.1% | inhibition [36] 8.34% | inhibition [39] -1.62% | inhibition (D(2) dopamine receptor [40]) 9.18%
6.47: pKi [33]
9.53 µM: Ki ([7]; read-out: Ki)
9.55 µM: Ki ([7]; read-out: pKi (converted))
7.9 µM: IC50 [14]
active: inhibition (Rattus norvegicus) 83.2% | inhibition [38] 54.8%
> 30 µM (not active): EC50 [1] | EC50 [27] | IC50 [31]
